{"source": "patent US12370144B2", "about": "“Centanafadine pharmaceutical formulations, and methods of making and using same” (OTSUKA PHARMACEUTICAL CO., LTD., priority 2021, dated 2025)", "origin": "cited, not measured here", "key": {"[1]": {"target": "norepinephrine reuptake transporter (NET) (Homo sapiens, UniProt P23975)", "sequence (P23975 whole entry)": "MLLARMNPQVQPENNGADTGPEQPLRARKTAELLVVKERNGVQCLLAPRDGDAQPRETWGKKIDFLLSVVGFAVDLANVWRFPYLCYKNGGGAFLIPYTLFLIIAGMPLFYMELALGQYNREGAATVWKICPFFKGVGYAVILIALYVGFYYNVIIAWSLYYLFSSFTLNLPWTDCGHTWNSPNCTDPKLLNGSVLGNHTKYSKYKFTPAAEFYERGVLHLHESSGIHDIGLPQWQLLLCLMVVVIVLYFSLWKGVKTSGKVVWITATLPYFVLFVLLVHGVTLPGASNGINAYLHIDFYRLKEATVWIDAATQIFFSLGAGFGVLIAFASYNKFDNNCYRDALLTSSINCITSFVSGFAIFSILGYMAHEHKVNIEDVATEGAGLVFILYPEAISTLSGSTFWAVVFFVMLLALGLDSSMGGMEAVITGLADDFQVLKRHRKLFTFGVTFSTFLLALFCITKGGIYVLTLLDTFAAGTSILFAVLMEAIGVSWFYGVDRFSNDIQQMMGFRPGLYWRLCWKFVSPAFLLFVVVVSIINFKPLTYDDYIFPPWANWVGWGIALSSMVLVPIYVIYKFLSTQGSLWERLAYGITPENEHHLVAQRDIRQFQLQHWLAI", "conditions": "triple reuptake inhibitor, rank of potency"}, "[2]": {"target": "dopamine reuptake transporter (DAT) (Homo sapiens, UniProt Q01959)", "sequence (Q01959 whole entry, species assumed)": "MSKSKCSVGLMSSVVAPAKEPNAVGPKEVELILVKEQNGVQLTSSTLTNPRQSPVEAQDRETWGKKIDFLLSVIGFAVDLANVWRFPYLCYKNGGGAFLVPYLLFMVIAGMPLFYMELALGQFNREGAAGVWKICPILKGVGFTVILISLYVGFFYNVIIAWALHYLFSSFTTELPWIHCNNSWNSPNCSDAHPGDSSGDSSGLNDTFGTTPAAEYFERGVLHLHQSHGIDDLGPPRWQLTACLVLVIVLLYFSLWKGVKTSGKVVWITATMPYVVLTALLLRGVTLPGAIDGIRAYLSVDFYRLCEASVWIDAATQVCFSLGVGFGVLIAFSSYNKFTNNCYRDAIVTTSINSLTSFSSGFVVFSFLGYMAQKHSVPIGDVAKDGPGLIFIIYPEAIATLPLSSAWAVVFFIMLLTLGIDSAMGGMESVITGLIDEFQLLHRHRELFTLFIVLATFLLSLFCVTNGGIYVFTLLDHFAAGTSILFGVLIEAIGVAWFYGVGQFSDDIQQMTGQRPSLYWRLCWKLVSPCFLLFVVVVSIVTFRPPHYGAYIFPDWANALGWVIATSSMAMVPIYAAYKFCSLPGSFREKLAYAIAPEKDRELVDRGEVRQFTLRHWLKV", "conditions": "fraction of the potency towards NET"}, "[3]": {"target": "serotonin reuptake transporter (SERT) (Homo sapiens, UniProt P31645)", "sequence (P31645 whole entry, species assumed)": "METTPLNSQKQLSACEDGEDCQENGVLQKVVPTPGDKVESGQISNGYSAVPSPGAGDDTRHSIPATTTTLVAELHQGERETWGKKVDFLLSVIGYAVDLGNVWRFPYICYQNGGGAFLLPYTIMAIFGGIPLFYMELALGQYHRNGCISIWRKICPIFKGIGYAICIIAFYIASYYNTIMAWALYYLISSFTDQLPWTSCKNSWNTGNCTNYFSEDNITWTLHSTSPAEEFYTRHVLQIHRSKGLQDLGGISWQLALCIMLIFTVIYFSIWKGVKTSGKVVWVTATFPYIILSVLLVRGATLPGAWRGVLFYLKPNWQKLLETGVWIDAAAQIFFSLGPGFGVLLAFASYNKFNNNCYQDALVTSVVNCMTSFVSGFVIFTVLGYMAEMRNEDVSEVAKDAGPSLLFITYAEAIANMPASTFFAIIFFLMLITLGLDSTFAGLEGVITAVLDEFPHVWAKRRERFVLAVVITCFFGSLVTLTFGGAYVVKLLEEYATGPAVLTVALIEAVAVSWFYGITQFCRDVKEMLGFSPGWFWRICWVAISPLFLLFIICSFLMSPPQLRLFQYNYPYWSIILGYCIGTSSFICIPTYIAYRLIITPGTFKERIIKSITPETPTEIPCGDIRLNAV", "conditions": "fraction of the potency towards NET"}, "[4]": {"conditions": "not told"}}}
{"smiles": "c1ccc2cc([C@]34CNC[C@H]3C4)ccc2c1", "note": "[centanafadine, (1R,5S)-1-(naphthalen-2-yl)-3-azabicyclo[3.1.0]hexane]", "values": [{"measurement": "Potency towards NET", "setting": "[1]", "value": "most potency"}, {"measurement": "Potency towards DAT relative to NET", "setting": "[2]", "value": "one-sixth"}, {"measurement": "Potency towards SERT relative to NET", "setting": "[3]", "value": "one-fourteenth"}, {"measurement": "Permeability", "setting": "[4]", "value": "highly permeable"}]}
